Experimental data taken from patent US20170260126A1, “SQUALENE COMPOUNDS AS MODULATORS OF LDL-RECEPTOR EXPRESSION” (OXFORD UNIVERSITY INNOVATION LIMITED, priority 2014, published 2017).
pEC50: −log10 of the molar value.

What was measured:
[1] = tested on: CHO pLDLR-Luciferase cells; assay: Luciferase assay (LDLR promoter-luciferase reporter in CHO cells); assay type: cell-based, Chinese Hamster; design: Emax: unit not given here; conditions: 48 hours after treatment; for pEC50: Cricetulus griseus
Protocol: Chinese Hamster Ovary (CHO) cells cultivated in 2×75 […] conical flasks had their media removed and washed in 5 mL of PBS before 2 mL of Trypsin was added. The cells were swirled for a minute, before being placed in the 37° C. incubator for 5 min. The conical flasks were tapped to remove cells from the bottom, and aspirated out into 2×13 mL of Ham F-12 media containing 10% FBS and 1% L-Glutamine. The cells were then spun down at 1000 rpm for 5 min. The media was aspirated off, and the pellet from each of the two flasks was resuspended in 5 mL of media. The cells were counted, plated into a 24-well plate to give 1.5×10^5 cells/well in 500 μL of media, and placed in the 37° C. incubator. 2 mL of the remaining cells was added to 38 mL of media, plated 20 mL each into 2×75 cm^2 conical flasks, and placed in the 37° C. incubator.
After 24 h, the media was aspirated out and replaced with 500 μL Lipoprotein Deficient Serum (LPDS) media. The plate was then returned to the incubator for a further 24 h.
Following this incubation, the compound to be tested was dissolved in DMSO to give a concentration of 1 mg/mL. An appropriate amount of this solution was then added to FPS media to give 5 mL at a concentration of 10 μM. Serial dilution then gave the other required concentrations, to give testing concentrations of 0.1 nM, 1 nM, 10 nM, 30 nM, 100 nM, 1 μM and 10 μM. A 1 μM compound 49 positive control was also prepared from a stock solution in DMSO, and 0.1% DMSO control was also prepared as a negative control. Each well was then treated with 500 μL of each solution, according to the plate map shown below, and the plates were placed in the incubator.
48 hours after treatment, the cell media was aspirated and cells were washed with 500 μL of PBS. 100 μL of luciferase lysis buffer (12.5 mL 1M TrisPO4 pH 7.8, 5 mL 0.2M CDTA solution, 50 mL glycerol, 5 mL Triton-X 100, 427.5 mL H2O) was added to each sample; samples were shaken for 20 min at 4° C. before being pipetted up and down, then the plate was spun at 4500 rpm for 5 min. 75 μL of lysate was pippetted into a 96-well plate. The plate was then run on a Dynex Technologies MLX 96 Well Plate Luminometer using revalation software. 100 µL of luciferase assay buffer solution and 50 μL of Luciferin solution (200 μL Luciferin 10X, 1800 μL H2O) was dispensed each time. Response was recorded in Relative Light Units (RLUs), normalised to standards from a bicinchoninic acid (BCA) assay.
Prepared using 3 mL luciferase assay buffer (7.5 mL 1M MgSO4, 7.5 mL 1M TrisPO4 pH 7.8 buffer, 20 mL 0.1M EGTA pH 7.8, 465 mL H2O), added to 60 μL of 100 mM ATP and 6 μL of 1 M DTT solution.

[2] = tested on: CHO pLDLR-Luciferase cells; assay: Combination therapy experiments, luciferase compound screen with simvastatin; assay type: cell-based, Chinese Hamster; conditions: Cricetulus griseus; single agent, CHO-pLDLR-Luc, FIG. 3a/3b; read-out: EC50, increase in levels of luciferase
Protocol: As described above, CHO WT cells transfected with pLDLR-Luc (CHO-pLDLR-Luc) were grown in HamsF-12(Sigma N4888) medium supplemented with 10% fetal bovine serum (FBS), 1% penicillin/streptomycin, 1% L-glutamine, in a 5% CO2 incubator at 37° C. CHO-pLDLR-Luc were seeded in 24-well plates at 1.5×10^5 per well. After 24h cells were changed to HamsF-12(Sigma N4888) supplemented with 10% lipoprotein deficient serum (LDPS), 1% penicillin/streptomycin, 1% L-glutamine. Compounds and simvastatin (Sigma S6196) dissolved in DMSO and Cholesterol(Sigma C8667) and 25-Hydroxycholesterol(Sigma H1015) dissolved in ethanol were added 24 h after serum starvation.
Simvastatin and compound 40 (Example 15; JM-086) were added together. The compounds were added at the exact same time, with the EC50 of either compound 40 (JM-086) or Simvastatin added into the media containing increasing doses of either compound 40 (JM-086) or Simvastatin then being added to the CHO pLDLR-Luciferase cells.

[3] = biological target: T1, Squalene Synthase (Homo sapiens, UniProt P37268); assay: Squalene Synthase activity assay in human liver microsomes with [1-3H]FPP; assay type: biochemical; conditions: FIG. 1b
T1 construct: 12 μg human liver microsomes; from tissue; host or cells: human liver microsomes
T1 sequence (P37268 1-417): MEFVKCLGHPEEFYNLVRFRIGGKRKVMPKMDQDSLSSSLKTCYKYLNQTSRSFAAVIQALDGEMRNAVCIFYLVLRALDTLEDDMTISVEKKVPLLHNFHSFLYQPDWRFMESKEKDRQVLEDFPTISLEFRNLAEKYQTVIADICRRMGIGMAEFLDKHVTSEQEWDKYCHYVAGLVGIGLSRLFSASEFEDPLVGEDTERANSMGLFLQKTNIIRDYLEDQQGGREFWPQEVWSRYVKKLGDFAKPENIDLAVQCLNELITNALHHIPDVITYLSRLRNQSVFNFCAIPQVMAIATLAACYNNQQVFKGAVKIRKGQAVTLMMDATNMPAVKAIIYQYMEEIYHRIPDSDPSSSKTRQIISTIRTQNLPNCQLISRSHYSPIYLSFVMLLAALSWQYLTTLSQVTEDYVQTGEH
Protocol: Squalene Synthase activity assays were performed in 1 mL reactions containing 50 mM phosphate buffer (pH 7.4, 10 mM MgCl2), 12 μg human liver microsomes, [1-^3H]FPP (0.045 Ci/mmol) and 0.5 mM NADPH. Enzyme and inhibitors were incubated for 10 minutes at 37° C. Substrate was then added and reaction was incubated for 10 min at 37° C. Reaction was stopped by adding 1 mL of 15% KOH in ethanol and incubated at 65° C. for 30 minutes. 5 mL of petroleum ether was added and reaction was shaken for 10 minutes at room temperature. The lower aqueous phase was frozen and the upper organic phase transferred to fresh glass tubes containing 2 mL distilled water. 1.5 mL of the organic phase was transferred to a scintillation vial containing liquid scintillation fluid, and radioactivity was quantitated using a Beckman liquid scintillation counter. Data was analyzed using Prism Graphpad software.
As a representative example, compound 40 (Example 15; JM-086) was tested for squalene synthase inhibitory properties alongside compound 15a (Example 1), and the known squalene synthase inhibitor, YM-53601, as a positive control.

| SMILES | melting point [°C] | squalene synthase inhibition [3] | Emax [1] | pEC50 [1] | pEC50 [2] |
| --- | --- | --- | --- | --- | --- |
| COCCCOc1ccc(/C=C/c2ccccc2)cc1 [Compound 41, (E)-1-(3-methoxypropoxy)-4-styrylbenzene] | 77.8 to 81 | – | 44 | 5.82 | – |
| OCCCOc1ccc(/C=C/c2ccccc2)cc1 [Compound 40, (E)-3-(4-styrylphenoxy)propan-1-ol] | – | dose-dependent activity | 32 | 7.46 | 7.50 |
| CCC(C)(C)C(=O)O[C@H]1C[C@@H](C)C=C2C=C[C@H](C)[C@H](CC[C@@H]3C[C@@H](O)CC(=O)O3)[C@H]21 [Simvastatin, reference compound] | – | – | – | – | 6.89 |
| CNCCCOc1ccc(/C=C/c2ccccc2)cc1 [Compound 69, (E)-N-methyl-3-(4-styrylphenoxy)propan-1-amine] | 84.2 to 87.7 | – | 8 | 6.49 | – |
| CC(C)CCCOc1ccc(/C=C/c2ccccc2)cc1 [Compound 39, (E)-1-((4-methylpentyl)oxy)-4-styrylbenzene] | 97 to 98 | – | 8 | 6.00 | – |
| COc1ccc(/C=C/c2ccccc2)cc1 [Compound 65, (E)-1-methoxy-4-styrylbenzene] | – | – | 6 | 7.30 | – |
| Oc1ccc(/C=C/c2ccccc2)cc1 [Compound 32, (E)-4-styrylphenol] | – | – | 34 | 5.52 | – |
| CN(C)CCCOc1ccc(/C=C/c2ccccc2)cc1F [Compound 62, (E)-3-(2-fluoro-4-styrylphenoxy)-N,N-dimethylpropan-1-amine] | 68.2 to 72.6 | – | 15 | 5.52 | – |

The next lines start with results.

| melting point [°C] | squalene synthase inhibition [3] | SMILES | Emax [1] | pEC50 [1] | pEC50 [2] |
| --- | --- | --- | --- | --- | --- |
| 56.2 to 58.6 | – | CN(C)CCCOc1ccc(/C=C/c2cccc(F)c2)cc1 [Compound 46b, (E)-3-(4-(3-fluorostyryl)phenoxy)-N,N-dimethylpropan-1-amine] | 9 | 5.82 | – |
| 75 to 77 | dose-dependent activity | CN(C)CCCOc1ccc(/C=C/c2ccccc2)cc1 [Compound 15a, (E)-N,N-dimethyl-3-(4-styrylphenoxy)propan-1-amine] | 5 | 7.41 | – |
| 85.2 to 85.9 | – | CN(C)CCCOc1ccc(/C=C/c2ccc([N+](=O)[O-])cc2)cc1 [Compound 47a, (E)-N,N-dimethyl-3-(4-(4-nitrostyryl)phenoxy)propan-1-amine] | 39 | 5.52 | – |
| 51.9 to 57.1 | – | CN(C)CCCOc1ccc(/C=C/c2ccccc2[N+](=O)[O-])cc1 [Compound 47c, (E)-N,N-dimethyl-3-(4-(2-nitrostyryl)phenoxy)propan-1-amine] | 5 | 5.52 | – |
| 138 to 140 | – | COc1ccc(/C=C/c2ccc(OCCCN(C)C)cc2)cc1 [Compound 44a, (E)-3-(4-(4-methoxystyryl)phenoxy)-N,N-dimethylpropan-1-amine] | 30 | 6.59 | – |
| 177.6 to 180.9 | – | COc1ccccc1/C=C/c1ccc(OCCCN(C)C)cc1 [Compound 44c, (E)-3-(4-(2-methoxystyryl)phenoxy)-N,N-dimethylpropan-1-amine] | 8 | 6.51 | – |
| 128.8 to 129.9 | – | CN(C)CCCOc1ccc(/C=C/c2ccc(F)cc2)cc1 [Compound 46a, (E)-3-(4-(4-fluorostyryl)phenoxy)-N,N-dimethylpropan-1-amine] | 24 | 5.70 | – |
| 28 to 32 | – | COc1cccc(/C=C/c2ccc(OCCCN(C)C)cc2)c1 [Compound 44b, (E)-3-(4-(3-methoxystyryl)phenoxy)-N,N-dimethylpropan-1-amine] | 9 | 5.60 | – |
